Assay results published in PubChem BioAssay AID330 (DTP/NCI, 2004).
Several values for one entry are separate records, joined by “and”; a condition that tells them apart may be missing. Equal entries are not always repeated. Inconclusive results and toxic doses are left out. Square brackets hold non-standard residues; d marks the D form. Peptide text beside a SMILES is read from it. * marks the point of attachment. Nle = CCCC[CH](N)C(=O)O; Cbz = O=C(OCc1ccccc1)*

Test system: P388 leukemia ip, CD2F1 mice, survival T/C
Assay: NCI In Vivo Anticancer Drug Screen. Data for tumor model P388 Leukemia (intraperitoneal) in CD2F1 (CDF1) mice
Details: endpoint: median survival time, higher = longer survival
Outline: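 Mice carrying the transplanted tumor received test compound or vehicle. Survival was recorded in each group, and the value is the treated-group measurement divided by that of the vehicle-treated control group.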

[1] = dose: 50.0 mg/kg/injection, schedule: Q01DX005 (ip), vehicle: Klucel (hydroxypropylcellulose) (HPC)
[2] = dose: 100.0 mg/kg/injection, schedule: Q01DX005 (ip), vehicle: Klucel (hydroxypropylcellulose) (HPC)
[3] = dose: 200.0 mg/kg/injection, schedule: Q01DX005 (ip), vehicle: Klucel (hydroxypropylcellulose) (HPC)
[4] = dose: 100.0 mg/kg/injection, schedule: Q01DX001 (ip), vehicle: saline with Tween-80
[5] = dose: 200.0 mg/kg/injection, schedule: Q01DX001 (ip), vehicle: saline with Tween-80
[6] = dose: 60.0 mg/kg/injection, schedule: Q01DX005 (ip), vehicle: saline with Tween-80
[7] = dose: 120.0 mg/kg/injection, schedule: Q01DX005 (ip), vehicle: saline with Tween-80
[8] = dose: 240.0 mg/kg/injection, schedule: Q01DX005 (ip), vehicle: saline with Tween-80
[9] = dose: 50.0 mg/kg/injection, schedule: Q01DX005 (ip), vehicle: saline with Tween-80
[10] = dose: 100.0 mg/kg/injection, schedule: Q01DX005 (ip), vehicle: saline with Tween-80
[11] = dose: 200.0 mg/kg/injection, schedule: Q01DX005 (ip), vehicle: saline with Tween-80
[12] = dose: 50.0 mg/kg/injection, schedule: Q01DX009 (ip), vehicle: saline with Tween-80
[13] = dose: 100.0 mg/kg/injection, schedule: Q01DX009 (ip), vehicle: saline with Tween-80
[14] = dose: 100.0 mg/kg/injection, schedule: Q04DX003 (ip), vehicle: saline with Tween-80
[15] = dose: 200.0 mg/kg/injection, schedule: Q04DX003 (ip), vehicle: saline with Tween-80
[16] = dose: 60.0 mg/kg/injection, schedule: Q01DX005 (ip), vehicle: Klucel (hydroxypropylcellulose) (HPC)
[17] = dose: 400.0 mg/kg/injection, schedule: Q04DX003 (ip), vehicle: saline with Tween-80

`N#CCCn1ncc(=O)[nH]c1=O` was tested, and the T/C (dose: 50.0 mg/kg/injection, schedule: Q01DX005 (ip), vehicle: water) was 101 % of control, the T/C (dose: 100.0 mg/kg/injection, schedule: Q01DX005 (ip), vehicle: water) was 104 % of control and the T/C (dose: 200.0 mg/kg/injection, schedule: Q01DX005 (ip), vehicle: water) was 107 % of control.
For `O=S(=O)(O)OOS(=O)(=O)O`, the T/C (dose: 50.0 mg/kg/injection, schedule: Q01DX009 (ip), vehicle: Klucel (hydroxypropylcellulose) (HPC)) was 100 % of control and the T/C (dose: 100.0 mg/kg/injection, schedule: Q01DX009 (ip), vehicle: Klucel (hydroxypropylcellulose) (HPC)) was 87 % of control.
With `CC1(C)OC2(C)CCC1C1C2N1C(=O)c1ccc([N+](=O)[O-])cc1` (configuration not stated) the T/C [1] was 96 % of control, the T/C [2] was 102 % of control and the T/C [3] was 110 % of control.
With `O=NN(CCCl)C(=O)N(CCCl)C(=O)Oc1c(Cl)cc(Cl)cc1Cl` the T/C (dose: 25.0 mg/kg/injection, schedule: Q01DX001 (ip), vehicle: saline with Tween-80) was 122 % of control, the T/C [4] was 150 % of control and the T/C [5] was 179 % of control and 193 % of control. For the same compound, the T/C (dose: 400.0 mg/kg/injection, schedule: Q01DX001 (ip), vehicle: saline with Tween-80) was 199 % of control.
In the case of `COc1cc2c(CCNC(C)=O)csc2cc1Cl`, the T/C [6] is reported as 97 % of control, the T/C [7] is reported as 99 % of control and the T/C [8] is reported as 105 % of control.
`CCCCCCCCCCCCCCCC[N+]1(CC)CCCC1` was tested, and the T/C (dose: 0.09 mg/kg/injection, schedule: Q01DX009 (ip), vehicle: saline) was 100 % of control, the T/C (dose: 0.19 mg/kg/injection, schedule: Q01DX009 (ip), vehicle: saline) was 98 % of control and the T/C (dose: 0.39 mg/kg/injection, schedule: Q01DX009 (ip), vehicle: saline) was 112 % of control and 93 % of control.
For `c1cc(OCC2CO2)cc(OCC2CO2)c1` (configuration not stated), the T/C (dose: 3.12 mg/kg/injection, schedule: Q01DX009 (ip), vehicle: DMSO) was 88 % of control, the T/C (dose: 6.25 mg/kg/injection, schedule: Q01DX009 (ip), vehicle: DMSO) was 88 % of control and the T/C (dose: 12.5 mg/kg/injection, schedule: Q01DX009 (ip), vehicle: DMSO) was 100 % of control. The T/C (dose: 25.0 mg/kg/injection, schedule: Q01DX009 (ip), vehicle: DMSO) was 104 % of control and 96 % of control, the T/C (dose: 50.0 mg/kg/injection, schedule: Q01DX009 (ip), vehicle: DMSO) was 104 % of control and the T/C (dose: 100.0 mg/kg/injection, schedule: Q01DX009 (ip), vehicle: DMSO) was 95 % of control.
In the case of `O=C(NCCCCCCNC(=O)C12CC3CC(CC(C3)C1)C2)C12CC3CC(CC(C3)C1)C2`, the T/C [1] is reported as 92 % of control, the T/C [2] is reported as 92 % of control and the T/C [3] is reported as 90 % of control.
In the case of `C/C=C/C(=O)Oc1ccccc1/C=C/C(=O)CCCCCC`, the T/C [9] is reported as 92 % of control, the T/C [10] is reported as 98 % of control and the T/C [11] is reported as 100 % of control.
`CCCCC(NC(=O)C(Cc1ccccc1)NC(=O)OCc1ccccc1)C(=O)O` (stereo not drawn) (Cbz-Phe-[Nle]-OH; configuration not given here) was tested, and the T/C [9] was 104 % of control, the T/C [10] was 105 % of control and the T/C [11] was 97 % of control.
In the case of `CCNC(CC)CCCNc1cc(OC)cc2cccnc12` (configuration not stated), the T/C (dose: 6.25 mg/kg/injection, schedule: Q01DX005 (ip), vehicle: saline with Tween-80) is reported as 106 % of control, the T/C (dose: 12.5 mg/kg/injection, schedule: Q01DX005 (ip), vehicle: saline with Tween-80) is reported as 98 % of control and the T/C (dose: 25.0 mg/kg/injection, schedule: Q01DX005 (ip), vehicle: saline with Tween-80) is reported as 102 % of control.
In the case of `Cc1ccc(/C=N\N=C\c2ccc(C)cc2)cc1`, the T/C [12] is reported as 100 % of control, the T/C (dose: 50.0 mg/kg/injection, schedule: Q04DX003 (ip), vehicle: saline with Tween-80) is reported as 91 % of control and the T/C [13] is reported as 90 % of control. For the same compound, the T/C [14] was 87 % of control, the T/C (dose: 200.0 mg/kg/injection, schedule: Q01DX009 (ip), vehicle: saline with Tween-80) was 90 % of control and the T/C [15] was 91 % of control.
`CCC(C)/C(=C\C#N)NCCCCCCN/C(=C/C#N)C(C)CC` (configuration not stated) was tested, and the T/C (dose: 15.0 mg/kg/injection, schedule: Q01DX005 (ip), vehicle: Klucel (hydroxypropylcellulose) (HPC)) was 95 % of control, the T/C (dose: 30.0 mg/kg/injection, schedule: Q01DX005 (ip), vehicle: Klucel (hydroxypropylcellulose) (HPC)) was 86 % of control and the T/C [16] was 90 % of control. The T/C (dose: 240.0 mg/kg/injection, schedule: Q01DX005 (ip), vehicle: Klucel (hydroxypropylcellulose) (HPC)) was 91 % of control.
With `O=C1c2cccc(NCC3CO3)c2C(=O)c2cccc(NCC3CO3)c21` (configuration not stated) the T/C (dose: 0.75 mg/kg/injection, schedule: Q01DX005 (ip), vehicle: Klucel (hydroxypropylcellulose) (HPC)) was 99 % of control, the T/C (dose: 1.5 mg/kg/injection, schedule: Q01DX005 (ip), vehicle: Klucel (hydroxypropylcellulose) (HPC)) was 107 % of control and the T/C (dose: 3.0 mg/kg/injection, schedule: Q01DX005 (ip), vehicle: Klucel (hydroxypropylcellulose) (HPC)) was 100 % of control. The T/C (dose: 6.0 mg/kg/injection, schedule: Q01DX005 (ip), vehicle: Klucel (hydroxypropylcellulose) (HPC)) was 96 % of control.
For `CCOC(=O)COc1ccc(NC(C)=O)cc1`, the T/C [6] was 103 % of control, the T/C [7] was 103 % of control and the T/C [8] was 95 % of control.
For `O=C(O)C(Cc1ccccc1)N=Cc1ccc(O)cc1` (configuration not stated), the T/C [14] was 102 % of control, the T/C [15] was 106 % of control and the T/C [17] was 97 % of control.
For `O=C1OC2(CCCCC2)OC(=O)C1=Cc1ccc([N+](=O)[O-])s1`, the T/C [14] was 114 % of control and the T/C [15] was 105 % of control.
With `C/[N+]([O-])=N\Nc1ccccc1SCCSc1ccccc1N/N=[N+](\C)[O-]` the T/C [16] was 91 % of control and the T/C (dose: 120.0 mg/kg/injection, schedule: Q01DX005 (ip), vehicle: Klucel (hydroxypropylcellulose) (HPC)) was 89 % of control.
For `CC(=O)N1C(=O)N(Cl)C(=O)C1(C)c1cccs1` (configuration not stated), the T/C [14] was 100 % of control, the T/C [15] was 95 % of control and the T/C [17] was 90 % of control.
For `Clc1ccc(CN2COc3c(cc(Cl)c4cccnc34)C2)c(Cl)c1`, the T/C (dose: 100.0 mg/kg/injection, schedule: Q04DX003 (ip), vehicle: Klucel (hydroxypropylcellulose) (HPC)) was 102 % of control, the T/C (dose: 200.0 mg/kg/injection, schedule: Q04DX003 (ip), vehicle: Klucel (hydroxypropylcellulose) (HPC)) was 87 % of control and the T/C (dose: 400.0 mg/kg/injection, schedule: Q04DX003 (ip), vehicle: Klucel (hydroxypropylcellulose) (HPC)) was 87 % of control.
`O=C(Cc1ccc(CC(=O)NCCCCc2ccccc2)cc1)NCCCCc1ccccc1` was tested, and the T/C [6] was 88 % of control, the T/C [7] was 88 % of control and the T/C [8] was 86 % of control.
With `CC(=O)Oc1cc2nc3ccccc3nc2cc1N(C)C` the T/C (dose: 50.0 mg/kg/injection, schedule: Q01DX009 (ip), vehicle: saline) was 99 % of control, the T/C (dose: 100.0 mg/kg/injection, schedule: Q01DX009 (ip), vehicle: saline) was 90 % of control and the T/C (dose: 200.0 mg/kg/injection, schedule: Q01DX009 (ip), vehicle: saline) was 100 % of control.
With `COC(=O)C(C(=O)OC)=C(NS(=O)(=O)c1ccc(C)cc1)SC` the T/C (dose: 12.5 mg/kg/injection, schedule: Q04DX002 (ip), vehicle: saline with Tween-80) was 100 % of control, the T/C (dose: 25.0 mg/kg/injection, schedule: Q04DX002 (ip), vehicle: saline with Tween-80) was 100 % of control and the T/C (dose: 50.0 mg/kg/injection, schedule: Q04DX002 (ip), vehicle: saline with Tween-80) was 109 % of control.
In the case of `Ic1ccccc1C[N+]12CN3CN(CN(C3)C1)C2`, the T/C [14] is reported as 120 % of control and the T/C [15] is reported as 115 % of control.
With `CN(C(=O)C1CC1)c1ccccc1` the T/C [12] was 105 % of control and the T/C [13] was 107 % of control.
With `COC(=O)[CH2][Sn]([CH3])([CH3])[CH2]C(=O)OC` the T/C (dose: 12.5 mg/kg/injection, schedule: Q01DX005 (ip), vehicle: saline) was 114 % of control, the T/C (dose: 25.0 mg/kg/injection, schedule: Q01DX005 (ip), vehicle: saline) was 124 % of control and the T/C (dose: 50.0 mg/kg/injection, schedule: Q01DX005 (ip), vehicle: saline) was 123 % of control.
With `COc1ccc(NC(=O)/N=C2\CN(C(=O)c3c(F)cccc3F)C(=O)N2c2ccc(OC)cc2)cc1` the T/C [6] was 87 % of control, the T/C [7] was 89 % of control and the T/C [8] was 103 % of control.
With `COCN(Cc1ccccc1)C[Si](C)(C)C` the T/C [4] was 106 % of control and the T/C [5] was 99 % of control.
